The test system of one test is NL4-3 strain of HIV-1. The test can be described thus: Multiple cycle infection assay of CAp24 antigen production. Format: cell-based. Conditions: Human immunodeficiency virus 1, NL43, SUP-T1, 96 h, multiple cycle infection with NL4-3 virus, SupT1, MT4 or PBMC, MOI 0.01, day 4 and day −6 post-infection, read-out: EC50 for antiviral activity (50% inhibition of CA p24 production).

The test system of test [1] is Env-deleted NL4-3 vector virus pseudotyped with the VSV g envelope. Briefly: microbe, parasite or virus in culture. Format: cell-based, HIV-1. Conditions: Vesicular stomatitis virus, NL43, SUP-T1, 48 h, read-out: EC50 for antiviral activity (50% inhibition of luciferase activity).

Where two headings read alike, the source gives them in different places. Bounds are passed on as bounds.

Turning to `CN(Cc1ccccc1Cl)C(=O)CCCSc1ccc(O)cc1` [Example 3, N-(2-Chlorobenzyl)-4-[(4-hydroxyphenyl)thio]-N-methylbutanamide], the EC50 (with NL4-3 strain of HIV-1 (threshold below 5 μM); in test [1]) was less than 5 µM throughout.
As to `CN(C(=O)CCCSc1ccc(O)cc1)C(c1ccccc1)c1ccccc1` [Example 10, N-Benzhydryl-4-[(4-hydroxyphenyl)thio]-N-methylbutanamide], the EC50 (in the test on NL4-3 strain of HIV-1 (threshold below 5 μM); in test [1]) was less than 5 µM in each case.
With `COc1ccc(Cl)cc1CN(C)C(=O)CCCSc1ccc(O)cc1` [Example 70, N-(5-Chloro-2-methoxybenzyl)-4-[(4-hydroxyphenyl)thio]-N-methylbutanamide], the concentration for a half-maximal effect (EC50) in the test on NL4-3 strain of HIV-1 (threshold below 500 nM) was less than 0.5 µM; in the test with NL4-3 strain of HIV-1 (threshold below 5 μM), less than 5 µM.
For `COc1ccc(F)cc1CN(C)C(=O)CCCSc1ccc(O)cc1` [Example 71, N-(5-Fluoro-2-methoxybenzyl)-4-[(4-hydroxyphenyl)thio]-N-methylbutanamide] the same measures were less than 0.5 µM and less than 5 µM.
The corresponding values for `COc1ccc(F)cc1CN(C)C(=O)CCCSc1ccc(F)cc1` [Example 84, N-(5-Fluoro-2-methoxybenzyl)-4-[(4-fluorophenyl)thio]-N-methylbutanamide] are less than 0.5 µM and less than 5 µM.
For `CC(C)Oc1ccc(F)cc1CN(C)C(=O)CCCSc1ccc(F)cc1` [Example 85, N-(5-Fluoro-2-isopropoxybenzyl)-4-[(4-fluorophenyl)thio]-N-methylbutanamide] the same measures were less than 0.5 µM and less than 5 µM.
With `COc1ccc(F)cc1CN(C)C(=O)CCC[S+]([O-])c1ccc(O)cc1` (centres unmarked) [Example 103, N-(5-fluoro-2-methoxybenzyl)-4-[(4-hydroxyphenyl)sulfinyl]-N-methylbutanamide], the concentration for a half-maximal effect (EC50) in the test on NL4-3 strain of HIV-1 (threshold below 500 nM) was less than 0.5 µM; in the test with NL4-3 strain of HIV-1 (threshold below 5 μM) it was less than 5 µM.
Consider `COc1ccc([S+]([O-])CCCC(=O)N(C)Cc2cc(F)ccc2OC)cc1` (centres unmarked) [Example 104, N-(5-fluoro-2-methoxybenzyl)-4-[(4-methoxyphenyl)sulfinyl]-N-methylbutanamide], for which the half-maximal effective concentration (EC50) in the test on NL4-3 strain of HIV-1 (threshold below 500 nM) was less than 0.5 µM; in the test with NL4-3 strain of HIV-1 (threshold below 5 μM), less than 5 µM.
On to `COc1ccc(F)cc1CN(C)C(=O)CCCn1ccc2cc(F)ccc21` [Example 106, 4-(5-fluoro-1H-indol-1-yl)-N-(5-fluoro-2-methoxybenzyl)-N-methylbutanamide], for which the results for the EC50 in the test on NL4-3 strain of HIV-1 (threshold below 500 nM) and in the test with NL4-3 strain of HIV-1 (threshold below 5 μM) were less than 0.5 µM and less than 5 µM, respectively.
The corresponding values for `COc1ccc(F)cc1CN(C)C(=O)CCCn1ccc2cc(Cl)ccc21` [Example 107, 4-(5-chloro-1H-indol-1-yl)-N-(5-fluoro-2-methoxybenzyl)-N-methylbutanamide] are less than 0.5 µM and less than 5 µM.
Turning to `COc1ccc(F)cc1CN(C)C(=O)CCCn1ccc2cc(Br)ccc21` [Example 108, 4-(5-bromo-1H-indol-1-yl)-N-(5-fluoro-2-methoxybenzyl)-N-methylbutanamide], the results for the half-maximal effective concentration (EC50) in the test with NL4-3 strain of HIV-1 (threshold below 500 nM) and in the test on NL4-3 strain of HIV-1 (threshold below 5 μM) were less than 0.5 µM and less than 5 µM, respectively.
For `COc1ccc(Cl)cc1CN(C)C(=O)CCCSc1ccc(OC(C)C)cc1` [Example 113, N-(5-chloro-2-methoxybenzyl)-4-[(4-isopropoxyphenyl)thio]-N-methylbutanamide], the concentration for a half-maximal effect (EC50) with NL4-3 strain of HIV-1 (threshold below 500 nM) is less than 0.5 µM; in the test on NL4-3 strain of HIV-1 (threshold below 5 μM), less than 5 µM.
The corresponding values for `COc1ccc([S+]([O-])CCCC(=O)N(C)Cc2cc(Cl)ccc2OC)cc1` (centres unmarked) [Example 116, N-(5-chloro-2-methoxybenzyl)-4-[(4-methoxyphenyl)sulfinyl]-N-methylbutanamide] are less than 0.5 µM and less than 5 µM.
For `COc1ccc([S+]([O-])CCCC(=O)N(C)Cc2cc(F)ccc2OC(C)C)cc1` (centres unmarked) [Example 118, N-(5-fluoro-2-isopropoxybenzyl)-4-[(4-methoxyphenyl)sulfinyl]-N-methylbutanamide] the same measures were less than 0.5 µM and less than 5 µM.
For `COc1ccc(C)cc1CN(C)C(=O)CCCn1ccc2cc(F)ccc21` [Example 120, 4-(5-fluoro-1H-indol-1-yl)-N-(2-methoxy-5-methylbenzyl)-N-methylbutanamide], the concentration giving a half-maximal response (EC50) with NL4-3 strain of HIV-1 (threshold below 500 nM) was less than 0.5 µM; in the test with NL4-3 strain of HIV-1 (threshold below 5 μM), less than 5 µM.
For `CN(C(=O)CCCn1ccc2cc(F)ccc21)c1cccc2ccccc12` [Example 123, 4-(5-fluoro-1H-indol-1-yl)-N-methyl-N-1-naphthylbutanamide] the same measures were less than 0.5 µM and less than 5 µM.
The corresponding values for `COc1ccc(C(=O)CCCC(=O)N(C)Cc2cc(Cl)ccc2OC)cc1` [Example 125, N-(5-chloro-2-methoxybenzyl)-5-(4-methoxyphenyl)-N-methyl-5-oxopentanamide] are less than 0.5 µM and less than 5 µM.
For `CN(C(=O)CCCSc1ccc(F)cc1)c1nccc2ccccc12` [Example 128, 4-[(4-fluorophenyl)thio]-N-isoquinolin-1-yl-N-methylbutanamide] the same measures were less than 0.5 µM and less than 5 µM.
Regarding `CN(C(=O)CCC[S+]([O-])c1ccc(F)cc1)c1nccc2ccccc12` (centres unmarked) [Example 129, 4-[(4-fluorophenyl)sulfinyl]-N-isoquinolin-1-yl-N-methylbutanamide], the values for the 50% effective concentration (EC50) with NL4-3 strain of HIV-1 (threshold below 500 nM) and in the test on NL4-3 strain of HIV-1 (threshold below 5 μM) were less than 0.5 µM and less than 5 µM, respectively.
The corresponding values for `CN(C(=O)CCCSc1ccc(F)cc1)c1cccc2cccnc12` [Example 130, 4-[(4-fluorophenyl)thio]-N-methyl-N-quinolin-8-ylbutanamide] are less than 0.5 µM and less than 5 µM.
With `COc1ccc(SCCCC(=O)N(C)c2nccc3ccccc23)cc1` [Example 132, N-isoquinolin-1-yl-4-[(4-methoxyphenyl)thio]-N-methylbutanamide], the results for the concentration giving a half-maximal response (EC50) with NL4-3 strain of HIV-1 (threshold below 500 nM) and in the test with NL4-3 strain of HIV-1 (threshold below 5 μM) were less than 0.5 µM and less than 5 µM, respectively.
With `COc1ccc(F)cc1CN(C)C(=O)CCCSc1ccc(Br)cc1` [Example 145, 4-[(4-Bromophenyl)thio]-N-(5-fluoro-2-methoxybenzyl)-N-methylbutanamide], the concentration giving a half-maximal response (EC50) with NL4-3 strain of HIV-1 (threshold below 500 nM) is less than 0.5 µM; in the test with NL4-3 strain of HIV-1 (threshold below 5 μM), less than 5 µM.
For `CN(Cc1ccccc1N1CCNCC1)C(=O)CCCSc1ccc(O)cc1` [Example 162, 4-[(4-Hydroxyphenyl)thio]-N-methyl-N-(2-piperazin-1-ylbenzyl)butanamide] the same measures were less than 0.5 µM and less than 5 µM.
For the molecule `CN(C(=O)CCCSc1ccc(F)cc1)c1cccc2ccccc12` [Example 169, 4-[(4-Fluorophenyl)thio]-N-methyl-N-1-naphthylbutanamide], the 50% effective concentration (EC50) with NL4-3 strain of HIV-1 (threshold below 500 nM) is less than 0.5 µM; with NL4-3 strain of HIV-1 (threshold below 5 μM), less than 5 µM.
The corresponding values for `COc1ccc(F)cc1CN(C)C(=O)CCCn1cc(-c2ccc(F)cc2)cn1` [Example 170, N-(5-Fluoro-2-methoxybenzyl)-4-[4-(4-fluorophenyl)pyrazol-1-yl]-N-methylbutanamide] are less than 0.5 µM and less than 5 µM.
The corresponding values for `COc1ccc(F)cc1CN(C)C(=O)CCCn1cc(-c2ccc(F)cc2)c(C)n1` [Example 171, N-(5-Fluoro-2-methoxybenzyl)-4-[4-(4-fluorophenyl)-3-methylpyrazol-1-yl]-N-methylbutanamide] are less than 0.5 µM and less than 5 µM.
`COc1ccc(Cl)cc1CN(C)C(=O)CCCn1cc(-c2ccc(F)cc2)cn1` [Example 173, N-(5-Chloro-2-methoxybenzyl)-4-[4-(4-fluorophenyl)pyrazol-1-yl]-N-methylbutanamide]: the 50% effective concentration (EC50) with NL4-3 strain of HIV-1 (threshold below 500 nM) was less than 0.5 µM; with NL4-3 strain of HIV-1 (threshold below 5 μM), less than 5 µM.
The corresponding values for `COc1ccc(-c2cnn(CCCC(=O)N(C)Cc3cc(F)ccc3OC)c2)cc1` [Example 174, N-(5-Fluoro-2-methoxybenzyl)-4-[4-(4-methoxyphenyl)pyrazol-1-yl]-N-methylbutanamide] are less than 0.5 µM and less than 5 µM.
Take `COc1ccc(F)cc1CN(C)C(=O)CCCn1cc(-c2ccc(F)cc2C)cn1` [Example 175, N-(5-Fluoro-2-methoxybenzyl)-4-[4-(4-fluoro-2-methylphenyl)pyrazol-1-yl]-N-methylbutanamide]: the EC50 was less than 0.5 µM in the test with NL4-3 strain of HIV-1 (threshold below 500 nM) and less than 5 µM in the test on NL4-3 strain of HIV-1 (threshold below 5 μM).
The corresponding values for `COc1ccc(F)cc1CN(C)C(=O)CCCn1cc(-c2ccc(O)cc2)cn1` [Example 176, N-(5-Fluoro-2-methoxybenzyl)-4-[4-(4-hydroxyphenyl)pyrazol-1-yl]-N-methylbutanamide] are less than 0.5 µM and less than 5 µM.
For `COc1ccc(F)cc1CN(C)C(=O)CCCn1cc(-c2ccc(C#N)cc2)cn1` [Example 177, N-(5-Fluoro-2-methoxybenzyl)-4-[4-(4-cyanophenyl)pyrazol-1-yl]-N-methylbutanamide] the same measures were less than 0.5 µM and less than 5 µM.
For `COc1ccc(F)cc1CN(C)C(=O)CCCn1cc(-c2ccncc2)cn1` [Example 178, N-(5-Fluoro-2-methoxybenzyl)-4-(4-pyridin-4-yl-pyrazol-1-yl)-N-methylbutanamide] the same measures were less than 0.5 µM and less than 5 µM.
As to `COc1ccc(-c2cnc(CCCC(=O)N(C)Cc3cc(F)ccc3OC)o2)cc1` [Example 180, N-(5-Fluoro-2-methoxybenzyl)-4-[5-(4-methoxyphenyl)oxazol-2-yl]-N-methylbutanamide], the EC50 with NL4-3 strain of HIV-1 (threshold below 500 nM) was less than 0.5 µM; in the test with NL4-3 strain of HIV-1 (threshold below 5 μM), less than 5 µM.
For the molecule `CCOC(=O)c1cc(F)ccc1[S+]([O-])CCCC(=O)N1CCc2ccc(OC)cc21` (centres unmarked) [Example 191, Ethyl 5-fluoro-2-((4-(6-methoxy-2,3-dihydro-1H-indol-1-yl)-4-oxobutyl)sulfinyl)benzoate], in the test with NL4-3 strain of HIV-1 (threshold below 5 μM), the 50% effective concentration (EC50) was less than 5 µM.
With `CCOC(=O)c1cc(F)ccc1SCCCC(=O)N(C)c1cccc(OC)c1` [Example 195, Ethyl 5-fluoro-2-({4-[(3-methoxyphenyl)(methyl)amino]-4-oxobutyl}thio)benzoate], the concentration for a half-maximal effect (EC50) in test [1] is less than 5 µM.

(Values after US20120022054A1, “NOVEL SUBSTITUTED ARYL DERIVATIVES, THEIR PROCESS OF PREPARATION AND THEIR THERAPEUTICAL USES AS ANTI-HIV AGENTS” (priority 2008, published 2012).)
